# According to patent publication US12649733B2, “3,6-diamino-pyridazin-3-yl derivatives, pharmaceutical compositions containing them and their uses as pro-apoptotic agents” (LES LABORATOIRES SERVIER, priority 2019, dated 2026):
# What was measured:
# MOLT-4 cells = assay: MOLT-4 cell viability, MTT assay; type: cell-based; conditions: Homo sapiens, MOLT-4, 48 h, 48 h exposure
# Summary of the method: (§1)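 Cells grown in RPMI 1640 with 10% heat-inactivated FBS at 37° C, 5% CO2, exposed 48 h to nine 3.16-fold serial compound dilutions in triplicate. MTT added for 4 h, SDS/HCl solubilisation overnight, absorbance at 540 nm; IC50 by four-parameter fit.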
# H146 cells = assay: H146 cell viability, MTT assay; type: cell-based; conditions: Homo sapiens, NCI-H146, 48 h, 48 h exposure
# Summary of the method: as §1
# Bcl-xL protein = molecular target: T1, Bcl-xL protein (Homo sapiens, UniProt Q07817, N197C); assay: Fluorescence quenching assay (PUMA peptide displacement); type: binding; conditions: 1 nM protein, 400 nM peptide, 2 hours at 23° C.; KI determined from IC50
# T1 construct: (2-197)[N197C]; His-His (two His8 stretches joined by a Gly/Ala/Ser/Thr linker)
# T1 sequence (Q07817 2-197 N197C): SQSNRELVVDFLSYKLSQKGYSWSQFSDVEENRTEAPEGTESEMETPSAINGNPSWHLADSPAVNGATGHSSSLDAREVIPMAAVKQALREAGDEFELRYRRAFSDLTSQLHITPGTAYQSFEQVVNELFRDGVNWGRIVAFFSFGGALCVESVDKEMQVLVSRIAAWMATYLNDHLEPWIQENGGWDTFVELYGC
# Summary of the method: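 Displacement of a TQ5WS-quencher-labelled PUMA peptide (400 nM) from Cy5-labelled His-tagged Bcl-xL 2-197 N197C (1 nM) raises fluorescence. An 11-point compound dilution was incubated 2 h at 23 °C in HEPES 10 mM, NaCl 150 mM, 0.05% Tween 20, pH 7.4, 5% DMSO. Fluorescence was read at Ex 620/Em 680 nm, and KI was derived from IC50.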
IC50 (MOLT-4 cells) [nM],IC50 (H146 cells) [nM],Ki (Bcl-xL protein) [nM],Compound
1.59,1420,0.0073,"Cc1cc(N(C)c2nc(C(=O)O)c(CCCOc3ccc(C#CCN4CCOCC4)cc3F)s2)nnc1Nc1nc2ccccc2s1 [Example 198, 2-[[6-(1,3-Benzothiazol-2-ylamino)-5-methyl-pyridazin-3-yl]-methyl-amino]-5-[3-[2-fluoro-4-(3-morpholinoprop-1-ynyl)phenoxy]propyl]thiazole-4-carboxylic acid]"
25.9,64.1,0.001,"CNCC#Cc1ccc(OCCCc2sc(N(CCCCCCN(C)C)c3cc(C)c(Nc4nc5ccccc5s4)nn3)nc2C(=O)O)c(F)c1 [Example 199, 2-[[6-(1,3-Benzothiazol-2-ylamino)-5-methyl-pyridazin-3-yl]-[6-(dimethylamino)hexyl]amino]-5-[3-[2-fluoro-4-[3-(methylamino)prop-1-ynyl]phenoxy]propyl]thiazole-4-carboxylic acid]"
695,115,0.0077,CNCC#Cc1ccc(OCCCc2sc(N(CCCN(C)C)c3cc(C)c(Nc4nc5ccccc5s4)nn3)nc2C(=O)O)c(F)c1 [Example 200]
417,75.3,0.0019,"CNCC#Cc1ccc(OCCCc2sc(N(CC[N+](C)(C)C)c3cc(C)c(Nc4nc5ccccc5s4)nn3)nc2C(=O)[O-])c(F)c1 [Example 201, 2-[[6-(1,3-Benzothiazol-2-ylamino)-5-methyl-pyridazin-3-yl]-[2-(trimethylammonio)ethyl]amino]-5-[3-[2-fluoro-4-[3-(methylamino)prop-1-ynyl]phenoxy]propyl]thiazole-4-carboxylate]"
0.753,3.9,0.0022,"Cc1cc(N(C)c2nc(C(=O)O)c(CCCOc3ccc(C#CCN4CCCC4)cc3F)s2)nnc1Nc1nc2ccccc2s1 [Example 203, 2-[[6-(1,3-Benzothiazol-2-ylamino)-5-methyl-pyridazin-3-yl]-methyl-amino]-5-[3-[2-fluoro-4-(3-pyrrolidin-1-ylprop-1-ynyl)phenoxy]propyl]thiazole-4-carboxylic acid]"
0.703,7.3,0.006,"Cc1cc(N(C)c2nc(C(=O)O)c(CCCOc3ccc(C#CCN4CCCCC4)cc3F)s2)nnc1Nc1nc2ccccc2s1 [Example 204, 2-[[6-(1,3-Benzothiazol-2-ylamino)-5-methyl-pyridazin-3-yl]-methyl-amino]-5-[3-[2-fluoro-4-[3-(1-piperidyl)prop-1-ynyl]phenoxy]propyl]thiazole-4-carboxylic acid]"
0.374,≤ 5.93,0.0023,"Cc1cc(N(C)c2nc(C(=O)O)c(CCCOc3ccc(C#CC(C)N(C)C)cc3F)s2)nnc1Nc1nc2ccccc2s1 (stereo not drawn) [Example 205, 2-[[6-(1,3-Benzothiazol-2-ylamino)-5-methyl-pyridazin-3-yl]-methyl-amino]-5-[3-[4-[3-(dimethylamino)but-1-ynyl]-2-fluoro-phenoxy]propyl]thiazole-4-carboxylic acid]"
3280,1080,0.0037,"CNCC#Cc1ccc(OCCCc2sc(N(CCN(C)C)c3cc(C)c(Nc4nc5ccccc5s4)nn3)nc2C(=O)O)c(F)c1 [Example 207, 2-[[6-(1,3-Benzothiazol-2-ylamino)-5-methyl-pyridazin-3-yl]-[2-(dimethylamino)ethyl]amino]-5-[3-[2-fluoro-4-[3-(methylamino)prop-1-ynyl]phenoxy]propyl]thiazole-4-carboxylic acid]"
484,66.8,0.0065,"Cc1cc(N(CCCC(O)C[N+](C)(C)C)c2nc(C(=O)[O-])c(CCCOc3ccc(C#CCN(C)C)cc3F)s2)nnc1Nc1nc2ccccc2s1 (stereo not drawn) [Example 211, 2-[[6-(1,3-Benzothiazol-2-ylamino)-5-methyl-pyridazin-3-yl]-[4-hydroxy-5-(trimethylammonio)pentyl]amino]-5-[3-[4-[3-(dimethylamino)prop-1-ynyl]-2-fluoro-phenoxy]propyl]thiazole-4-carboxylate]"
2880,3240,0.001,"CNCC#Cc1ccc(OCCCc2sc(N(CCCCC[N+](C)(C)CCCS(=O)(=O)[O-])c3cc(C)c(Nc4nc5ccccc5s4)nn3)nc2C(=O)O)c(F)c1 [Example 212, 3-[5-[[6-(1,3-Benzothiazol-2-ylamino)-5-methyl-pyridazin-3-yl]-[4-carboxy-5-[3-[2-fluoro-4-[3-(methylamino)prop-1-ynyl]phenoxy]propyl]thiazol-2-yl]amino]pentyl-dimethyl-ammonio]propane-1-sulfonate]"
93.6,72.8,0.0015,"CNCC#Cc1ccc(OCCCc2sc(N(CCCCCN(C)C)c3cc(C)c(Nc4nc5ccccc5s4)nn3)nc2C(=O)O)c(F)c1 [Example 213, 2-[[6-(1,3-Benzothiazol-2-ylamino)-5-methyl-pyridazin-3-yl]-[5-(dimethylamino)pentyl]amino]-5-[3-[2-fluoro-4-[3-(methylamino)prop-1-ynyl]phenoxy]propyl]thiazole-4-carboxylic acid]"
22.5,26.7,0.004,"Cc1cc(N(C)c2nc(C(=O)O)c(CCCOc3ccc(CCCN(C)C)cc3F)s2)nnc1Nc1nc2ccccc2s1 [Example 214, 2-[[6-(1,3-Benzothiazol-2-ylamino)-5-methyl-pyridazin-3-yl]-methyl-amino]-5-[3-[4-[3-(dimethylamino)propyl]-2-fluoro-phenoxy]propyl]thiazole-4-carboxylic acid]"
146,222,0.004,"Cc1cc(N(CCCC(O)C[N+]23CCN(CC2)CC3)c2nc(C(=O)[O-])c(CCCOc3ccc(C#CCN(C)C)cc3F)s2)nnc1Nc1nc2ccccc2s1 (stereo not drawn) [Example 216, 2-[[5-(1-aza-4-azoniabicyclo[2.2.2]octan-4-yl)-4-hydroxy-pentyl]-[6-(1,3-benzothiazol-2-ylamino)-5-methyl-pyridazin-3-yl]amino]-5-[3-[4-[3-(dimethylamino)prop-1-ynyl]-2-fluoro-phenoxy]propyl]thiazole-4-carboxylate]"
180,86.2,0.0041,"Cc1cc(N(CCCC(O)C[N+]2(C)CCOCC2)c2nc(C(=O)[O-])c(CCCOc3ccc(C#CCN(C)C)cc3F)s2)nnc1Nc1nc2ccccc2s1 (stereo not drawn) [Example 217, 2-[[6-(1,3-Benzothiazol-2-ylamino)-5-methyl-pyridazin-3-yl]-[4-hydroxy-5-(4-methylmorpholin-4-ium-4-yl)pentyl]amino]-5-[3-[4-[3-(dimethylamino)prop-1-ynyl]-2-fluoro-phenoxy]propyl]thiazole-4-carboxylate]"
270,891,0.0012,"Cc1cc(N(C)c2nc(C(=O)O)c(CCCOc3ccc(C#CCNCC[N+](C)(C)CCCS(=O)(=O)[O-])cc3F)s2)nnc1Nc1nc2ccccc2s1 [Example 218, 3-[2-[3-[4-[3-[2-[[6-(1,3-Benzothiazol-2-ylamino)-5-methyl-pyridazin-3-yl]-methyl-amino]-4-carboxy-thiazol-5-yl]propoxy]-3-fluoro-phenyl]prop-2-ynylamino]ethyl-dimethyl-ammonio]propane-1-sulfonate]"
984,221,0.0035,"Cc1cc(N(CCCC(O)C[N+]2(C)CCCCC2)c2nc(C(=O)[O-])c(CCCOc3ccc(C#CCN(C)C)cc3F)s2)nnc1Nc1nc2ccccc2s1 (stereo not drawn) [Example 220, 2-[[6-(1,3-Benzothiazol-2-ylamino)-5-methyl-pyridazin-3-yl]-[4-hydroxy-5-(1-methylpiperidin-1-ium-1-yl)pentyl]amino]-5-[3-[4-[3-(dimethylamino)prop-1-ynyl]-2-fluoro-phenoxy]propyl]thiazole-4-carboxylate]"
29.5,94.4,0.0017,"Cc1cc(N(CCCC(O)C[N+]2(C)CCN(C)CC2)c2nc(C(=O)[O-])c(CCCOc3ccc(C#CCN(C)C)cc3F)s2)nnc1Nc1nc2ccccc2s1 (stereo not drawn) [Example 221, 2-[[6-(1,3-Benzothiazol-2-ylamino)-5-methyl-pyridazin-3-yl]-[5-(1,4-dimethylpiperazin-1-ium-1-yl)-4-hydroxy-pentyl]amino]-5-[3-[4-[3-(dimethylamino)prop-1-ynyl]-2-fluoro-phenoxy]propyl]thiazole-4-carboxylate]"
61,32.4,0.0014,"Cc1cc(N(C)c2nc(C(=O)[O-])c(CCCOc3ccc(C#CCNCC[N+](C)(C)C)cc3F)s2)nnc1Nc1nc2ccccc2s1 [Example 222, 2-[3-[4-[3-[2-[[6-(1,3-Benzothiazol-2-ylamino)-5-methyl-pyridazin-3-yl]-methyl-amino]-4-carboxy-thiazol-5-yl]propoxy]-3-fluoro-phenyl]prop-2-ynylamino]ethyl-trimethyl-ammonium]"

Compound,IC50 (MOLT-4 cells) [nM],IC50 (H146 cells) [nM],Ki (Bcl-xL protein) [nM]
"Cc1cc(N(CCCC(O)C[N+]23CCC(CC2)CC3)c2nc(C(=O)[O-])c(CCCOc3ccc(C#CCN(C)C)cc3F)s2)nnc1Nc1nc2ccccc2s1 (stereo not drawn) [Example 215, 2-[[6-(1,3-Benzothiazol-2-ylamino)-5-methyl-pyridazin-3-yl]-(4-hydroxy-5-quinuclidin-1-ium-1-yl-pentyl)amino]-5-[3-[4-[3-(dimethylamino)prop-1-ynyl]-2-fluoro-phenoxy]propyl]thiazole-4-carboxylate]",406,174,0.0031
